# Laboratory results as given in patent publication US20080009418A1, “Selective Inhibitors” (Alchemia LTD., priority 2004, published 2008).
# Key:
# Human Melanocortin (MC3) = target: T1, Human Melanocortin (MC3) (Homo sapiens, UniProt P41968); experiment: Radioligand binding, human melanocortin MC3 membranes, FlashPlate, [125I]-NDP-αMSH; conditions: compound at 10 μM, [125I]-NDP-αMSH
# T1 construct: purchased Perkin Elmer Biosignal
# Outline: (§1)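 Cloned human receptor membranes were coated onto FlashPlate wells and incubated with radioligand and compound (added from a 0.5 mM DMSO daughter plate) for 1 hour at room temperature in the dark. Scintillation counting gave percent inhibition, with DMSO defining total and reference ligand defining non-specific binding.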
# Human μ-opioid (MOP) = target: T2, Human μ-opioid (MOP) (Homo sapiens, UniProt P35372); experiment: Radioligand binding, human μ-opioid (MOP) membranes, FlashPlate, [3H]-Naloxone; conditions: compound at 10 μM, [3H]-Naloxone
# T2 construct: purchased Perkin Elmer Biosignal
# T2 sequence (P35372 whole entry): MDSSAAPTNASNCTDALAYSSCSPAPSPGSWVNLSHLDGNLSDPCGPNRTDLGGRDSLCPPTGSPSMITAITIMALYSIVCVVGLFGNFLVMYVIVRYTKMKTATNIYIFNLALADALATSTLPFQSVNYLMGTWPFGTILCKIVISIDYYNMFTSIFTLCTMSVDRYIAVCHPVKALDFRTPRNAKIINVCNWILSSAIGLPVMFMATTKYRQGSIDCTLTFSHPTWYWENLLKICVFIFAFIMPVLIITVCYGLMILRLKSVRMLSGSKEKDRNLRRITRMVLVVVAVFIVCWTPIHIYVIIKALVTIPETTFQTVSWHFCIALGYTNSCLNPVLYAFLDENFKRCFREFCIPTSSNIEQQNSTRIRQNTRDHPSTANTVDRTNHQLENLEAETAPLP
# Outline: as §1
# [1] = target: T3, Human melanin-concentrating hormone (MCH1) (Homo sapiens, UniProt Q99705); experiment: Radioligand binding, human melanin-concentrating hormone MCH1 membranes, FlashPlate, [125I]-S36057; conditions: compound at 10 μM
# T3 construct: purchased Perkin Elmer Biosignal
# T3 sequence (Q99705 whole entry): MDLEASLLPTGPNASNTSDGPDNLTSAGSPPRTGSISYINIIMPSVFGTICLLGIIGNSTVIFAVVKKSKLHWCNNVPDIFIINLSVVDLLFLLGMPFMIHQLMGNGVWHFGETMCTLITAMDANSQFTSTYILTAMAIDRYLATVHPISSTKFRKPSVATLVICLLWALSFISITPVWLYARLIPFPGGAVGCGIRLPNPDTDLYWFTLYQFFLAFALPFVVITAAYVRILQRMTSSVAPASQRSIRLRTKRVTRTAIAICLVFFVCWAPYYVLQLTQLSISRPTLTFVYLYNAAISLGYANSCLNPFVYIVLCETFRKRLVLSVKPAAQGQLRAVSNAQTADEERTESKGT
# Outline: as §1
# Human neurokinin (NK1) = target: T4, Human neurokinin (NK1) (Homo sapiens, UniProt P25103); experiment: Radioligand binding, human neurokinin NK1 membranes, filtration, [125I]-Substance P; conditions: compound at 10 μM, [125I]-Substance P
# T4 construct: purchased Perkin Elmer Biosignal
# T4 sequence (P25103 whole entry): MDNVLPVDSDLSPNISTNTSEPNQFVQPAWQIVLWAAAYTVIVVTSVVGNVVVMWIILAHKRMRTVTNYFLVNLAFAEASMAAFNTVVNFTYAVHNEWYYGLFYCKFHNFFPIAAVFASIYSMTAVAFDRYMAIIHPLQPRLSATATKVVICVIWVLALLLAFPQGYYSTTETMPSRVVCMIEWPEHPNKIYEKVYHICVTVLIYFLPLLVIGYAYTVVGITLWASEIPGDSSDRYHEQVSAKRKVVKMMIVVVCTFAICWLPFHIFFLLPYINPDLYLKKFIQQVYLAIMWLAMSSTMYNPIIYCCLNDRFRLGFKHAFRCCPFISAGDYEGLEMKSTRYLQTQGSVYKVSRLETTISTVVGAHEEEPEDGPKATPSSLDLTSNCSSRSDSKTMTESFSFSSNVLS
# Outline: (§2)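 Membranes from cloned human receptors were incubated with compound and radioligand for 1 hour at room temperature. Bound ligand was collected on 0.3% PEI-soaked filters, washed with cold 50 mM Tris-HCl pH 7.4, and counted by scintillation. Percent inhibition was computed against DMSO totals and reference-ligand nonspecific wells.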
# Human Melanocortin (MC4) = target: T5, Human Melanocortin (MC4) (Homo sapiens, UniProt P32245); experiment: Radioligand binding, human melanocortin MC4 membranes, FlashPlate, [125I]-NDP-αMSH; conditions: compound at 10 μM, [125I]-NDP-αMSH
# T5 construct: purchased Perkin Elmer Biosignal
# T5 sequence (P32245 whole entry): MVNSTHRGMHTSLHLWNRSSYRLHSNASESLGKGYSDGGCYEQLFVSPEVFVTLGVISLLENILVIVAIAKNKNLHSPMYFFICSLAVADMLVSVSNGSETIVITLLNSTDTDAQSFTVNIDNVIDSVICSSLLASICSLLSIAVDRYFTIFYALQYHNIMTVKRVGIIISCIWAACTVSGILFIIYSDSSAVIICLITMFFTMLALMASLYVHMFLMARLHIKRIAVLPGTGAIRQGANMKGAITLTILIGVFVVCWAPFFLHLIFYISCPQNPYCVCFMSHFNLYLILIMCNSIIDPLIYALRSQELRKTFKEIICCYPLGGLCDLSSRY
# Outline: as §1
# Mouse urotensin (mUR2) = target: T6, Mouse urotensin (mUR2) (Mus musculus, UniProt Q8VIH9); experiment: Radioligand binding, mouse urotensin mUR2 membranes, FlashPlate, [125I]-Urotensin II; conditions: compound at 10 μM, [125I]-Urotensin II
# T6 construct: purchased Perkin Elmer Biosignal
# T6 sequence (Q8VIH9 1-385): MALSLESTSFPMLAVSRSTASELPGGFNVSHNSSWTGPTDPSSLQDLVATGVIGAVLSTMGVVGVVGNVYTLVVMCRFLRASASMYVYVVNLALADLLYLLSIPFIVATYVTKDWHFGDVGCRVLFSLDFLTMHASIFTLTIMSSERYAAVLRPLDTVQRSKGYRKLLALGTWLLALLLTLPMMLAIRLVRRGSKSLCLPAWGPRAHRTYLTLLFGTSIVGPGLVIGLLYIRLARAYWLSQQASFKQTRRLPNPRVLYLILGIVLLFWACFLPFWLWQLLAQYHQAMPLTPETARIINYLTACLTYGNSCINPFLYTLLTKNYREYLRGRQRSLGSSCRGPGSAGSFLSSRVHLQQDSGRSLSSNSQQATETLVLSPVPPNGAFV
# Outline: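 Cloned mouse urotensin (mUR2) receptor membranes from Perkin Elmer Biosignal were immobilized in FlashPlate microplates using a proprietary coating. Each well got 19.5 μl buffer, then 0.5 μl of DMSO, reference ligand, or compound. Adding 5 μl of [125I]-Urotensin II, diluted to 5× final concentration in binding buffer, started binding. Plates were sealed with TopSeal-A and incubated 1 hour at room temperature in the dark. Wells were counted for 30 seconds each on a TopCount after a 60-second delay, and percentage inhibition was calculated.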
# [2] = target: T7, Human neuropeptide Y (NPY-Y1) (Homo sapiens, UniProt P25929); experiment: Radioligand binding, human neuropeptide Y NPY-Y1 membranes, FlashPlate, [125I]-PYY; conditions: compound at 10 μM, [125I]-PYY
# T7 construct: purchased Perkin Elmer Biosignal
# T7 sequence (P25929 1-384): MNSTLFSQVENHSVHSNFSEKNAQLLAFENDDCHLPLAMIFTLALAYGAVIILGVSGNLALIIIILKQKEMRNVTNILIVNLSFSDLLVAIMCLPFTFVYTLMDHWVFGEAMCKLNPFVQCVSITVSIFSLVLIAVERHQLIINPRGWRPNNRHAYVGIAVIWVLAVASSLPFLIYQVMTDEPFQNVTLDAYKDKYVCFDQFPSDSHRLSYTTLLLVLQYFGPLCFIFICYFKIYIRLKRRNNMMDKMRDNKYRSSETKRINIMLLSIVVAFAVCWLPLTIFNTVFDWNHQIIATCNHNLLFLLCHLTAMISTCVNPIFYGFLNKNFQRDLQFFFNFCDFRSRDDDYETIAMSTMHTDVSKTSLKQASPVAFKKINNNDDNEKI
# Outline: as §1
# Human melanocortin (MC5) = target: T8, Human melanocortin (MC5) (Homo sapiens, UniProt P33032); experiment: Radioligand binding, human melanocortin MC5 membranes, FlashPlate, [125I]-NDP-αMSH; conditions: compound at 10 μM, [125I]-NDP-αMSH
# T8 construct: purchased Perkin Elmer Biosignal
# T8 sequence (P33032 whole entry): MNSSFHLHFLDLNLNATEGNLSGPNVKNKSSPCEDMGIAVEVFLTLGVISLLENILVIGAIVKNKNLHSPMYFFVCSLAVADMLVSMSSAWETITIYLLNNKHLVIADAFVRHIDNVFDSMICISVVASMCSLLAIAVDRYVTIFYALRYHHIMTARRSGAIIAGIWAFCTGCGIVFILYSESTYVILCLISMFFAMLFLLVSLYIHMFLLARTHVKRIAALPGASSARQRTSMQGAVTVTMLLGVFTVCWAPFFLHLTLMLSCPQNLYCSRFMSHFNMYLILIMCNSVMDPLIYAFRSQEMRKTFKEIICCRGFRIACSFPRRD
# Outline: as §1
# Human δ-opioid (DOP) = target: T9, Human δ-opioid (DOP) (Homo sapiens, UniProt P41143); experiment: Radioligand binding, human δ-opioid (DOP) membranes, FlashPlate, [3H]-Bremazocine; conditions: compound at 10 μM, [3H]-Bremazocine
# T9 construct: purchased Perkin Elmer Biosignal
# T9 sequence (P41143 whole entry): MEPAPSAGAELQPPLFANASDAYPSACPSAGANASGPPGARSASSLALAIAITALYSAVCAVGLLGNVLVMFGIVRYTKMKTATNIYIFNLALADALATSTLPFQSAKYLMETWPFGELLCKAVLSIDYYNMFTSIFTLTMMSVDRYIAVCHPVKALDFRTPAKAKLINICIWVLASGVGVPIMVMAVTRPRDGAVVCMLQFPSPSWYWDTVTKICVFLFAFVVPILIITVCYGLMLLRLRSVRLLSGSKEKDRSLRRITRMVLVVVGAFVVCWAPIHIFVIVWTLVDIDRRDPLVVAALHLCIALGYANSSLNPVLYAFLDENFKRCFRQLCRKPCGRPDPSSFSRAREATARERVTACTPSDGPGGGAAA
# Outline: as §1
# Human κ-Opioid (KOP) = target: T10, Human κ-Opioid (KOP) (Homo sapiens, UniProt P41145); experiment: Radioligand binding, human κ-opioid (KOP) membranes, filtration, [3H]-Diprenorphine; conditions: compound at 10 μM, [3H]-Diprenorphine
# T10 construct: purchased Perkin Elmer Biosignal
# T10 sequence (P41145 whole entry): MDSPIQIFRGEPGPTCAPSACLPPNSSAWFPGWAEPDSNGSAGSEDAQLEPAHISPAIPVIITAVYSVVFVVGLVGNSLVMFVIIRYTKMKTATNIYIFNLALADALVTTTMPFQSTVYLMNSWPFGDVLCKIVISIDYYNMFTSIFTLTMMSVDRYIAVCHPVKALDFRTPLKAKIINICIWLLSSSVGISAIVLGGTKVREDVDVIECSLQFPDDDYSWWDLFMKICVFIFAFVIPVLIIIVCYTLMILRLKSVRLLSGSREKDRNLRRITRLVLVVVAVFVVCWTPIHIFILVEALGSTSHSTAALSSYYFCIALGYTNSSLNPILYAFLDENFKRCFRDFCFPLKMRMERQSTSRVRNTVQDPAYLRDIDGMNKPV
# Outline: as §2
# Human opioid (ORL1) = target: T11, Human opioid (ORL1) (Homo sapiens, UniProt P41146); experiment: Radioligand binding, human opioid ORL1 membranes, FlashPlate, [125I]-Nociceptin; conditions: compound at 10 μM, [125I]-Nociceptin
# T11 construct: purchased Perkin Elmer Biosignal
# T11 sequence (P41146 whole entry): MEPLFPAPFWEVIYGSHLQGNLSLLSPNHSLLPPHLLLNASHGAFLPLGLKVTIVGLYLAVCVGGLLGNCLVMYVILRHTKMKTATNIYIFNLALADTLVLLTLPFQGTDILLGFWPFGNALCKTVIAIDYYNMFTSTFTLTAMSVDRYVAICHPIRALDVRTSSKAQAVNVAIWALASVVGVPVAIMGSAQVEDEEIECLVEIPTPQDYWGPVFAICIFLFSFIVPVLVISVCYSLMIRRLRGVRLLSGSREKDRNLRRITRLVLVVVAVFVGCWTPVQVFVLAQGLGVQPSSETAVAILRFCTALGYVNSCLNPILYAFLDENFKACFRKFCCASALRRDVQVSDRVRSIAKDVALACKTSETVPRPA
# Outline: as §1
# T1 sequence (P41968 whole entry): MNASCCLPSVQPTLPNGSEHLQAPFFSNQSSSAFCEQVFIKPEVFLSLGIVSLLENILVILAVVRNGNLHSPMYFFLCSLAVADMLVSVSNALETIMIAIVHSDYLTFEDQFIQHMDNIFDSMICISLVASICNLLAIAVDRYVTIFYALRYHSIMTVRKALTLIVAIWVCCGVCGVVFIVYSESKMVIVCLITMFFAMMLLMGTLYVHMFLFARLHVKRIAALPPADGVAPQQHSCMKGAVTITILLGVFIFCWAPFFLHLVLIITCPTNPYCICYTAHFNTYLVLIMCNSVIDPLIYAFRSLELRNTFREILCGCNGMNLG
SMILES,"A3: inhibition of radioligand binding, human melanocortin (MC3) (Human Melanocortin (MC3))","A7: inhibition of radioligand binding, human μ-opioid (MOP) (Human μ-opioid (MOP))","A6: inhibition of radioligand binding, human melanin-concentrating hormone (MCH1) ([1]; [125I]-S36057)","A8: inhibition of radioligand binding, human neurokinin (NK1) (Human neurokinin (NK1))","A4: inhibition of radioligand binding, human melanocortin (MC4) (Human Melanocortin (MC4))","A11: inhibition of radioligand binding, mouse urotensin (mUR2) (Mouse urotensin (mUR2))","A9: inhibition of radioligand binding, human neuropeptide Y (NPY-Y1) [2]","A5: inhibition of radioligand binding, human melanocortin (MC5) (Human melanocortin (MC5))","A1: inhibition of radioligand binding, human δ-opioid (DOP) (Human δ-opioid (DOP))","A2: inhibition of radioligand binding, human κ-opioid (KOP) (Human κ-Opioid (KOP))","A10: inhibition of radioligand binding, human opioid (ORL1) (Human opioid (ORL1))",also measured
CC(=O)N[C@H]1C(NC(=O)CCN)O[C@H](CO)[C@@H](O)[C@@H]1OCc1cccc2ccccc12 (stereo partly shown) [compound 356],− (“−” indicates less than 50% inhibition at 10 μM),− (“−” indicates less than 50% inhibition at 10 μM),− (“−” indicates less than 50% inhibition at 10 μM),− (“−” indicates less than 50% inhibition at 10 μM),− (“−” indicates less than 50% inhibition at 10 μM),− (“−” indicates less than 50% inhibition at 10 μM),+ (“+” indicates greater than 50% inhibition at 10 μM),− (“−” indicates less than 50% inhibition at 10 μM),− (“−” indicates less than 50% inhibition at 10 μM),− (“−” indicates less than 50% inhibition at 10 μM),− (“−” indicates less than 50% inhibition at 10 μM),
N=C(N)NCCC(=O)NC1C(OCc2ccc(-c3ccccc3)cc2)OC(COCc2ccc(Cl)cc2)C(O)C1OCc1ccc(-c2ccccc2)cc1 (stereo not shown) [compound 416],,,,,,,,,,,,"A3: inhibition of radioligand binding (Human Melanocortin (MC3); human MC3 membranes): + (“+” indicates greater than 50% inhibition at 10 μM); A7: inhibition of radioligand binding (Human μ-opioid (MOP); human MOP membranes): − (“−” indicates less than 50% inhibition at 10 μM); A6: inhibition of radioligand binding ([1]; [125I]-S36057, human MCH1 membranes): + (“+” indicates greater than 50% inhibition at 10 μM); A8: inhibition of radioligand binding (Human neurokinin (NK1); human NK1 membranes): + (“+” indicates greater than 50% inhibition at 10 μM); A4: inhibition of radioligand binding (Human Melanocortin (MC4); human MC4 membranes): + (“+” indicates greater than 50% inhibition at 10 μM); A11: inhibition of radioligand binding (Mouse urotensin (mUR2); mouse mUR2 membranes): − (“−” indicates less than 50% inhibition at 10 μM); A9: inhibition of radioligand binding ([2]; human NPY-Y1 membranes): − (“−” indicates less than 50% inhibition at 10 μM); A5: inhibition of radioligand binding (Human melanocortin (MC5); human MC5 membranes): + (“+” indicates greater than 50% inhibition at 10 μM); A1: inhibition of radioligand binding (Human δ-opioid (DOP); human DOP membranes): − (“−” indicates less than 50% inhibition at 10 μM); A2: inhibition of radioligand binding (Human κ-Opioid (KOP); human KOP membranes): − (“−” indicates less than 50% inhibition at 10 μM); A10: inhibition of radioligand binding (Human opioid (ORL1); human ORL1 membranes): + (“+” indicates greater than 50% inhibition at 10 μM)"
COC[C@H]1OC(OCc2ccc3ccccc3c2)[C@H](NC(=O)CCCNC(=N)N)[C@@H](OCc2ccc3ccccc3c2)[C@@H]1O (stereo partly shown) [compound 339],− (“−” indicates less than 50% inhibition at 10 μM),+ (“+” indicates greater than 50% inhibition at 10 μM),+ (“+” indicates greater than 50% inhibition at 10 μM),+ (“+” indicates greater than 50% inhibition at 10 μM),+ (“+” indicates greater than 50% inhibition at 10 μM),− (“−” indicates less than 50% inhibition at 10 μM),− (“−” indicates less than 50% inhibition at 10 μM),+ (“+” indicates greater than 50% inhibition at 10 μM),− (“−” indicates less than 50% inhibition at 10 μM),− (“−” indicates less than 50% inhibition at 10 μM),− (“−” indicates less than 50% inhibition at 10 μM),
COCC1OC(OCc2ccccc2)C(NC(=O)CCNC(=N)N)C(OCc2ccccc2)C1O (stereo not shown) [compound 173],,,,,,,,,,,,"A3 radioligand binding, percentage inhibition (Human Melanocortin (MC3)): − (“−” indicates less than 50% inhibition at 10 μM); A7 radioligand binding, percentage inhibition (Human μ-opioid (MOP)): − (“−” indicates less than 50% inhibition at 10 μM); A6 radioligand binding, percentage inhibition ([1]; [125I]-S36057): − (“−” indicates less than 50% inhibition at 10 μM); A8 radioligand binding, percentage inhibition (Human neurokinin (NK1)): + (“+” indicates greater than 50% inhibition at 10 μM); A4 radioligand binding, percentage inhibition (Human Melanocortin (MC4)): − (“−” indicates less than 50% inhibition at 10 μM); A11 radioligand binding, percentage inhibition (Mouse urotensin (mUR2)): − (“−” indicates less than 50% inhibition at 10 μM); A9 radioligand binding, percentage inhibition [2]: − (“−” indicates less than 50% inhibition at 10 μM); A5 radioligand binding, percentage inhibition (Human melanocortin (MC5)): − (“−” indicates less than 50% inhibition at 10 μM); A1 radioligand binding, percentage inhibition (Human δ-opioid (DOP)): − (“−” indicates less than 50% inhibition at 10 μM); A2 radioligand binding, percentage inhibition (Human κ-Opioid (KOP)): − (“−” indicates less than 50% inhibition at 10 μM); A10 radioligand binding, percentage inhibition (Human opioid (ORL1)): − (“−” indicates less than 50% inhibition at 10 μM)"
N=C(N)NCCC(=O)N[C@H]1C(OCc2ccc(Cl)cc2)O[C@H](COCc2ccccc2)[C@@H](O)[C@@H]1OCc1ccc(-c2ccccc2)cc1 (stereo partly shown) [compound 536],+ (“+” indicates greater than 50% inhibition at 10 μM),,+ (“+” indicates greater than 50% inhibition at 10 μM),+ (“+” indicates greater than 50% inhibition at 10 μM),+ (“+” indicates greater than 50% inhibition at 10 μM),− (“−” indicates less than 50% inhibition at 10 μM),− (“−” indicates less than 50% inhibition at 10 μM),+ (“+” indicates greater than 50% inhibition at 10 μM),,+ (“+” indicates greater than 50% inhibition at 10 μM),− (“−” indicates less than 50% inhibition at 10 μM),"A7: inhibition of radioligand binding, human μ-opioid (MOP) (Human μ-opioid (MOP); 10 µM): − (“−” indicates less than 50% inhibition at 10 μM); A1: inhibition of radioligand binding, human δ-opioid (DOP) (Human δ-opioid (DOP); 10 µM): − (“−” indicates less than 50% inhibition at 10 μM)"
